PubChem BioAssay AID1996
Converted amounts (≈) assume the structure as drawn.

details: buffer; pH 7.4; 200.0 µM

Row | SMILES | solubility kinetic [µg/mL]
1 | O=C(Cc1ccccc1)Nc1ccc(NC(=O)c2ccccc2)nc1 | 5.2 (≈ 15.7 µM)
2 | CCCCn1cc2c(c1-c1cccc(C)c1)c(=O)n(C)c(=O)n2C | 14 (≈ 43 µM)
3 | CCOc1ccc(NC(=O)c2ccccc2NC(=O)c2cccnc2)cc1 | 1.4 (≈ 3.87 µM)
4 | O=C(Cn1ncc(Cl)c(Cl)c1=O)NC1CCCCC1 | > 45.6
5 | Cc1c(-c2csc(N)n2)cnn1C | > 29.1
6 | Cc1ccc(NC(=O)COC(=O)c2cccnc2)cc1 | > 40.5
7 | O=C(COC(=O)Cc1cccc(F)c1)NC(=O)NC1CCCCC1 | > 50.5
8 | O=C(O)C(=O)O.Oc1ccccc1CNCCCN1CCOCC1 | 41.5
9 | C=CCn1c(O)c(C=Nc2ccc(CN3CCCCC3)cc2)c(=O)[nH]c1=S | 51.8 (≈ 135 µM)
10 | COc1ccc(C2CC3(O)CC(C#N)(C(=O)N3)C2(C#N)C#N)cc1 (stereo not given) | > 48.3
11 | CCOC(=O)CCNC(=O)N1CCCC(CNS(=O)(=O)c2cccs2)C1 (stereo not given) | > 60.5
12 | CCC1CCCCN1Cc1ccc(N)cc1 (stereo not given) | > 32.8
13 | CC(C)CC(=O)Nc1ccc2c(c1)nc(CCN1CCOCC1)n2C | > 51.7
14 | COc1cc(NS(=O)(=O)c2ccc(NC(=S)NC(C)=O)cc2)nc(OC)n1 | > 61.7
15 | Cc1ccc(OCCNC(=O)Cc2ccc(F)cc2)cc1 | 29.2 (≈ 102 µM)
16 | Cn1c(=O)n(C)c2cc(S(=O)(=O)Nc3ccccc3C(=O)O)ccc21 | > 54.2
17 | O=C(COc1ccccc1)Nc1c(Cl)ccc2nsnc12 | 4.7 (≈ 14.7 µM)
18 | CCN(CC)S(=O)(=O)c1cc(NC(=O)NCCCl)ccc1C | > 52.2
19 | CCc1cc2cc(C)ccc2nc1SCC(=O)NC1CCCC1 | < 0.4
20 | O=C(Nc1cccc(Cl)c1)c1ccc2c(c1)OCCO2 | 6.3 (≈ 21.7 µM)

Row | SMILES | solubility kinetic [µg/mL]
21 | Cc1cccc(OCC(=O)NC2CCCC2)c1 | 31.5 (≈ 135 µM)
22 | COc1ccc(NC(=S)NCc2ccccc2Cl)c(OC)c1 | < 0.4
23 | FC(F)(F)c1ccccc1CN1CCC(Cc2ccccc2)CC1 | < 0.7
24 | CCC1CCc2sc(C(=O)NCC3CCCO3)cc2C1 (stereo not given) | 42.3 (≈ 144 µM)
25 | NS(=O)(=O)c1ccc(NC(=O)c2cc(Cl)sc2Cl)cc1 | 15.4 (≈ 43.8 µM)
26 | O=c1[nH]c(O)c(C=Nc2ccccc2Sc2ccccc2)c(=O)[nH]1 | 1.3 (≈ 3.83 µM)
27 | O=C(Oc1ccc([N+](=O)[O-])cc1)C1CC(=O)N(c2ccc3c(c2)OCCO3)C1 (stereo not given) | > 57.7
28 | CN(C(=S)NC(=O)c1ccccc1)C1CCCCC1 | > 41.5
29 | CC(=O)Nc1nc(C)cs1 | > 23.4
30 | CCCc1cc(=O)[nH]c(SCC(=O)N2c3ccccc3NC(=O)C2(C)C)n1 | 57.4 (≈ 149 µM)
31 | COC(=O)CN1C(=O)COc2ccc(S(=O)(=O)N3CCCCCC3)cc21 | 52.4 (≈ 137 µM)
32 | CCCCC(=O)Nc1ccc(C2C(=O)c3ccccc3C2=O)cc1 | 44 (≈ 137 µM)
33 | NC(=O)Cn1cc(C=C2C(=O)NC(=O)NC2=O)c2ccccc21 | 11.3 (≈ 36.2 µM)
34 | Cn1c(=O)c2c(nc(Oc3cccc(O)c3)n2C)n(C)c1=O | > 45.3
35 | O=C1NC2(CCCCCC2)C(=O)N1Cc1ccccc1Br | 17.1 (≈ 48.7 µM)
36 | Cc1ccc2nc3c(nc2c1C)CCCC3 | 7.1 (≈ 33.4 µM)
37 | CSC1=NC2(CCCCC2)CC12C=CC(=O)C=C2 | 36.2 (≈ 138 µM)
38 | Cc1csc(=O)n1CCC(=O)NCc1ccc(F)cc1 | > 44.2
39 | O=C(NCc1ccc(-n2cccc2)cc1)c1cccc(F)c1 | 1.7 (≈ 5.78 µM)
40 | COc1ccc(C)c2sc(N(CCN(C)C)C(=O)c3ccc4ccccc4c3)nc12.Cl | 30.8

Row | SMILES | solubility kinetic [µg/mL]
41 | CC(NC(=O)COC(=O)C1CC2CCCC(C1)C2=O)c1ccccc1 (stereo not given) | > 51.5
42 | O=C(Cc1cccs1)NCc1cc(Cl)cc(Cl)c1 | 34.3 (≈ 114 µM)
43 | COc1ccc2sc(NCc3ccccc3)nc2c1 | 2 (≈ 7.4 µM)
44 | Cn1c(SCc2ccc(F)cc2)nnc1-c1ccncc1 | > 45.1
45 | COc1cccc(Oc2ccc(C(F)(F)F)cc2NC(=O)CN2C(=O)NC3(CCCC3)C2=O)c1 | 2.7 (≈ 5.66 µM)
46 | Cc1ccc(CN(C)C(=O)CCc2c[nH]c3ccccc23)o1 | 6.5 (≈ 21.9 µM)
47 | CS(=O)(=O)N(CC(=O)N1CCOCC1)c1ccccc1Br | > 56.6
48 | C=Cn1ccnc1P(O)(=S)c1nc(C)c(CCOC(C)=O)s1 (stereo not given) | 43.1 (≈ 121 µM)
49 | Cc1ccc(NC(=O)C2CCC(N3C(=O)C4CCCCC4C3=O)CC2)cc1 (stereo not given) | 52.2 (≈ 142 µM)
50 | COc1ccccc1OCCn1ccnc1 | > 32.7
51 | CC(C)N(C)S(=O)(=O)c1ccc(Cl)c(C(=O)O)c1 | > 43.8
52 | C=CCC(C(=O)NC(C)c1ccccc1)C(=O)NC(C)c1ccccc1 (stereo not given) | 16.5 (≈ 47.1 µM)
53 | Cc1nn(C(=O)/C(C#N)=C/N(C)C)c(C)c1C | > 34.8
54 | Cc1ccc(C)c(NC(=O)CCN2CC(C)CC(C)C2)c1 (stereo not given) | 32.7 (≈ 113 µM)
55 | NC(=O)NC(=O)CSc1ccccc1 | > 31.5
56 | CC(C)c1ccc(/C=C/C(=O)N2CCOCC2)cc1 | 36.3 (≈ 140 µM)
57 | C=C1c2cc(C)c(C)cc2NC(=O)N1c1ccccc1 | 24.4 (≈ 92.3 µM)
58 | N/C(=N\OC(=O)c1cccc(F)c1)c1cccc([N+](=O)[O-])c1 | 1.3 (≈ 4.29 µM)
59 | Cc1ccc(C(=O)NCC(=O)OC2CCCCC2=O)cc1C (stereo not given) | > 45.5
60 | COc1cccc(N=C2CC(C)(C)CC(=O)/C2=C(/O)c2ccccc2)c1 | 0.9 (≈ 2.58 µM)
